From US10157261B2, “Transcriptome-wide design of selective, bioactive small molecules targeting RNA” (The Scripps Research Institute, priority 2013, dated 2018) come the findings set out here.

The target of one series is 5′CGA/3′GGU RNA. The experiment in a line: in solution, fluorescence-based binding affinity assay. More on the design: species or system human. As to conditions: read-out: Dissociation constants, 5′CGA/3′GGU. The procedure:
(§1) Dissociation constants were determined using an in solution, fluorescence-based assay (Disney et al., J. Am. Chem. Soc. 130, 11185-11194 (2008)). The RNA of interest was folded in 1× Assay Buffer (8 mM Na2HPO4, pH 7.0, 190 mM NaCl, 1 mM EDTA and 40 μg/mL BSA) by heating at 60° C. for 5 min and slowly cooling to room temperature. A selected fluorescently labeled compound was added to a final concentration of 50 nM for compounds 1-Fl, 4-Fl, and 5-Fl or 500 nM for compound 2. Serial dilutions (1:2) were then completed in 1× Assay Buffer supplemented with 50 nM of compounds 1-Fl, 4-Fl, or 5-Fl or 500 nM of 2. The solutions were incubated for 30 min at room temperature and then transferred to a 96-well plate and fluorescence intensity measured. The change in fluorescence intensity as a function of RNA concentration was fit to the following equation (Wang & Rando, Chem. Biol. 2, 281-290. (1995)): I=I0+0.5Δε(([FL]0+[RNA]0+Kt)−(([FL]0+[RNA]0+Kt)^2−4[FL]0[RNA]0)^0.5) where I and I0 are the observed fluorescence intensity in the presence and absence of RNA respectively, Δε is the difference between the fluorescence intensity in the absence of RNA and in the presence of infinite RNA concentration, [FL]0 and [RNA]0 are the concentrations of small molecule and RNA, respectively, and Kt is the dissociation constant.
(§2) The targetable loops (motifs) were embedded into C1 (FIG. 1) so that affinity measurements could be completed. The secondary structures of the RNAs as predicted by RNAstructure (Mathews et al., Proc. Natl. Acad. Sci. U.S.A. 101, 7287-7292 (2004).) and representative binding curves are shown in (FIG. 4D-4I).

The next series concerns the target 5′CGAUU/3′GGUAUA RNA. The description is as above. Conditions: read-out: Dissociation constants, 5′CGAUU/3′GGUAUA. More on the design: species or system human. The procedure: as §1, §2
The target in series [1] is 5′UUU/3′AUA RNA (loop near the processing site of miRNA-96 precursor). The series is described as above. More on the design: species or system human. How it is done:
as §1, §2

In another series the target is C1 (cassette RNA). The description is as above. Conditions: read-out: Dissociation constants, C1. How it is done: as §1, with “constant. […]” for “constant.”
A further series has as its target H Hairpin (DNA hairpin). Described as above. Conditions: read-out: Dissociation constants, H Hairpin. The procedure:
as §1, with “constant. […]” for “constant.”

A further series deals with miR-96. The experiment in a line: qRT-PCR of mature miRNA in MCF7 cells. The format is cell-based, human. How it is done:
(§3) MCF7 cells were cultured in either 6-well or 12-well plates, and total RNA was extracted using TRIzol LS reagent (Ambion) per the manufacturer's protocol. Approximately 200 ng of total RNA was used in reverse transcription (RT) reactions, which were completed using a Taqman MicroRNA RT Kit (Applied Biosystems) or a miScript II RT kit (Qiagen) per the manufacturer's protocol. qRT-PCR was performed on a 7900HT Fast Real Time PCR System (Applied Biosystem) using Taqman Universal PCR Master Mix or power SYBR green master mix (Applied Biosystems). All primer sets for mature miRNAs were purchased from Applied Biosystems. The expression level of mature miRNAs was normalized to U6 small nuclear RNA.
(§4) Pri-, pre-, and mature miR-96 RT-PCR products were analyzed on a denaturing 10% polyacrylamide gel stained with ethidium bromide. Expression levels were normalized to GAPDH.
(In qPCR the cycle at which signal appears reflects the starting amount.)

A further series concerns FOXO1 protein. Kind of series: Western blotting. Type of series: cell-based, human. Conditions: 50 nM, MCF7 cells. How it is done: MCF7 cells were grown in 6-well plates to ˜80% confluency in complete growth medium. […] Total protein was extracted using M-PER Mammalian Protein Extraction Reagent (Pierce Biotechnology) using the manufacturer's protocol. Extracted total protein was quantified using a Micro BCA Protein Assay Kit (Pierce Biotechnology). Approximately 40 μg of total protein was resolved on an 8% SDS-polyacrylamide gel, and then transferred to a PVDF membrane. The membrane was briefly washed with 1× Tris-buffered saline (TBS), and then blocked in 5% milk in 1×TBST (1×TBS containing 0.1% Tween-20) for 1 h at room temperature. The membrane was then incubated in 1:1000 FOXO1 primary antibodies (Cell Signaling Technology) in 1×TBST containing 3% BSA overnight at 4° C. The membrane was washed with 1×TBST and incubated with 1:2000 anti-rabbit IgG horseradish-peroxidase secondary antibody conjugate (Cell Signaling Technology) in 1×TBS for 1 h at room temperature. After washing with 1×TBST, protein expression was quantified using SuperSignal West Pico Chemiluminescent Substrate (Pierce Biotechnology) per the manufacturer's protocol. The membrane was then stripped using 1× Stripping Buffer (200 mM glycine, pH 2.2 and 0.1% SDS) followed by washing in 1×TBS. […] Image J software from the National Institutes of Health was used to quantify band intensities.
In general terms: In western blotting, separated proteins are transferred to a membrane and probed.

The test system of series [2] is MCF10A (healthy breast cells). The experiment in a line: Annexin V/PI assay. Type of series: cell-based, human. As to conditions: 50 nM, 72 hours. How it is done: Annexin V/PI Assays: MDA MB 231 or MCF-10A cells were grown in 6-well plates to 40-50% confluency. The cells were incubated with 50 nM of small molecule for 72 h and then detached from the surface using accutase. They were washed twice each with ice cold 1×DPBS and 1× Annexin Binding Buffer (50 mM Hepes (pH 7.4), 700 mM NaCl and 12.5 mM CaCl2). The cells were resuspended in 100 μL 1× Annexin Binding Buffer, and then 5 μL Annexin V-APC (eBioscience) were added. The solution was incubated for 10 min at room temperature followed by washing with 1× Annexin Binding Buffer. The cells were then stained with 1 μg/mL propidium iodide in 300 μL of 1× Annexin Binding Buffer for 15 min at room temperature. Flow cytometry was performed using a BD LSRII instrument (BD Biosciences). At least 10,000 events were used for analysis.

Another series relates to pri-miR-96. Kind of series: qRT-PCR of pri-miR-96 in MCF7 cells. Type of series: cell-based, human. The procedure:
as §4

The test system of a further series is pre-miR-96. The experiment in a line: qRT-PCR of pre-miR-96 in MCF7 cells. Type of series: cell-based, human. Conditions: 50 nM. How it is done:
as §4

The test system of another series is miR-182. The experiment in a line: qRT-PCR of mature miRNA in MCF7 cells. Type of series: cell-based, human. As to conditions: 40 μM, 20 h. How it is done: as §3
For the next series, the system named is miR-183. Kind of series: qRT-PCR of mature miRNA in MCF7 cells. The format is cell-based, human. Conditions: 40 μM, 20 h. How it is done:
as §3

Series [3] deals with miR-96-FOXO1 luciferase model system. Kind of series: Dual luciferase assay, miR-96 3′ UTR target. As to conditions: 40 μM, MCF7 cells. The format is cell-based, human. The procedure:
MCF7 cells were grown in 96-well plates to ˜80% confluency in complete growth medium. The cells were transiently transfected with 100 ng of plasmid encoding either the miR-96 3′ UTR target or a mutated 3′ UTR target using Lipofectamine 2000 per the manufacturer's protocol. Approximately 5 h post transfection, the small molecule of interest was added in complete growth medium, and the cells were incubated for another 20 h. Luciferase activity was then measured using a Dual Glo Luciferase Assay System (Promega) per the manufacturer's protocol. The values reported are the average of at least three measurements, and errors are the corresponding standard deviations.

The subject of the next series is MCF7 cells. Kind of series: APO BrdU TUNEL assay. Type of series: cell-based, human. Conditions: 40 μM. How it is done:
ON-TARGETplus SMARTpool FOXO1 siRNA and ONTARGETplus GAPD Control Pool were purchased from Dharmacon (Thermo Scientific) and were used at a final concentration of 100 nM. MCF7 cells were reverse transfected in a 6-well plate using Lipofectamine RNAiMAX reagent (Invitrogen) per the manufacturer's protocol.
MCF7 cells were grown in 6-well plates to 70-80% confluency. For experiments in which RNAi was used to knock down FOXO1 or GAPDH expression, the cells were first transfected as described above. Cells were treated with small molecules for 20 h followed by completion of an APO BrdU TUNEL assay (Molecular Probes) per the manufacturer's protocol. Flow cytometry was performed using a BD LSRII instrument (BD Biosciences). At least 10,000 events were used for analysis.

A further series concerns miR-210. The experiment in a line: qRT-PCR of mature miRNA. The format is cell-based, human. Conditions: 500 nM, ACHN renal cancer cell line. The procedure: as §3

As to `CCCN(CC(=O)N(CCC)CC(=O)N(CC(N)=O)Cc1cn(CCCNC(=O)CCCOc2c(C(C)(C)C)cc(-c3nc4cc(N5CCN(C)CC5)ccc4[nH]3)cc2C(C)(C)C)nn1)C(=O)CCCOc1cccc(-c2nc3ccc(-c4nc5ccc(N6CCN(C)CC6)cc5[nH]4)cc3[nH]2)c1` [BSH-2-H], the Kd at 5′CGA/3′GGU RNA was 900 ± 200 nM; on 5′CGAUU/3′GGUAUA RNA it was 85 ± 11 nM; in [1] (read-out: Dissociation constants, 5′UUU/3′AUA), 1170 ± 279 nM; at C1 (cassette RNA), greater than 4000 nM; on H Hairpin (DNA hairpin), greater than 50000 nM. Besides, in the series with miR-96 (50 nM), the “production of mature microRNA-96” value is given as “significantly inhibited production of the mature microRNA-96”. Also, the “effect on mature miRNA-96 levels” value in the series with miR-96 (1 μM, 0.5 μM and 0.05 μM, 24 hours) is “reduced mature miRNA-96 levels in a dose-dependent fashion”. In addition, the “increase in FOXO1 protein expressed” value in the series on FOXO1 protein was determined as 2.5 fold. Also, in series [2], the “effect on apoptosis in healthy breast cells” value is on record as “no effect on apoptosis”. Also, the “production of pri-microRNA-96” value in the series on pri-miR-96 (50 nM) is “boosting production of the pri-microRNA-96”. For the same compound, in the series on pri-miR-96 (24 hours), the “increase of pri-miRNA 96” value was “about 2.3 fold”. The “production of pre-microRNA-96” value with pre-miR-96 was “inhibiting production of the pre-microRNA-96”.

Take `CN1CCN(c2ccc3nc(-c4ccc(OCCCC(=O)NCCCN=[N+]=[N-])cc4)[nH]c3c2)CC1` [Compound 5]: the “binding affinity for the miR-96 precursor” value in series [1] is “lack of binding affinity”. The “effect on miR-96 expression” value in the series with miR-96 (40 μM, 20 h) was “do not affect”. In addition, in the series with miR-182, the “effect on miR-182 expression” value is listed as “do not affect”. Moreover, the “effect on miR-183 expression” value with miR-183 is reported as “do not affect”. The “effect on luciferase expression” value in series [3] is on record as “no effect”. For the same compound, the induction of apoptosis result with MCF7 cells was “do not induce apoptosis”.

Take `C#CCCCC(=O)NCC1O[C@H](O[C@@H]2C(N)C[C@@H](N)C(O[C@@H]3OC(CO)[C@H](O)C(N)C3O)[C@H]2O)C(O)[C@@H](O)[C@@H]1O` (some centres unmarked) [Compound 3]: in the series on miR-96 (200 μM), the “effect on miR-96 expression” value was “a less, but significant, effect”.

As to `CN1CCN(c2ccc3nc(-c4ccc5nc(-c6cccc(OCCCC(=O)NCCCN=[N+]=[N-])c6)[nH]c5c4)[nH]c3c2)CC1` [Compound 2], the “binding affinity for the miR-96 precursor” value in series [1] is reported as “lack of binding affinity”. The “effect on miR-96 expression” value in the series with miR-96 (40 μM, 20 h) was “do not affect”. Also, the “effect on miR-182 expression” value in the series with miR-182 is “do not affect”. The “effect on miR-183 expression” value in the series on miR-183 is listed as “do not affect”. Further, in the series with miR-210, the “reduction of formation of miR-210” value is given as 60%. In [3], the “effect on luciferase expression” value is “no effect”. In the series with MCF7 cells, the induction of apoptosis entry is “do not induce apoptosis”.
